Data set [1] is described as follows: (§1) Antidiabetic activity against IDX medium-treated human bone marrow mesenchymal stem cells assessed as induction of adipogenesis at 10 uM after 6 days by oil red o/hematoxylin staining-based inverted-phase microscopic analysis relative to IDX medium-treated control. The format is functional, Mesenchymal stem cell.
The subject of data set [2] is Mesenchymal stem cell. Description: Antidiabetic activity against IDX medium-treated human bone marrow mesenchymal stem cells assessed as induction of adiponectin production during adipogenesis after 6 days by ELISA. The format is functional. A general note: An ELISA detects its analyte on a solid surface through an enzyme-linked reagent.
The nature of data set [3]: Antidiabetic activity against IDX medium-treated human bone marrow mesenchymal stem cells assessed as induction of adiponectin production during adipogenesis after 6 days by ELISA relative to glibenclamide. The format is functional, Mesenchymal stem cell.
Data set [4] in a line: Cytotoxicity against human bone marrow mesenchymal stem cells assessed as cell viability up to 100 uM after 48 hrs by WST-1 assay. The format is cell-based. A general note: Tetrazolium assays rely on reduction of a dye to a coloured formazan, in cell work by metabolically active cells.
For data set [5], the system named is Mesenchymal stem cell. The description is as §1. The format is functional.
The test system of data set [6] is Mesenchymal stem cell. The data set is described as follows: Antidiabetic activity against IDX medium-treated human bone marrow mesenchymal stem cells assessed as induction of adiponectin production during adipogenesis at 60 to 100 uM after 6 days by ELISA relative to IDX medium-treated control. The format is functional.

The record followed here is ChEMBL document CHEMBL3585324, “Suncheonosides A-D, Benzothioate Glycosides from a Marine-Derived Streptomyces sp” (J Nat Prod, 2015).

Structures are written as SMILES. Active and inactive are the calls of the source. The rule behind the calls is not given here.

As for `COc1c(C)c(O[C@@H]2O[C@@H](C)[C@H](O)[C@@H](O)[C@H]2O)c(C(=O)SC)c(C(C)C)c1C`, the figures for the Activity (in data set [1]; in the data set with Mesenchymal stem cell [2]; in data set [4]) were 65%, “Dose-dependent effect” and “Non-toxic”, respectively. For the same molecule, the “%max” value in data set [3] was 47%.
In the case of `COc1c(C)c(O[C@@H]2O[C@@H](C)[C@H](O)[C@@H](O)[C@H]2O)c(C)c(C(C)C)c1C(=O)SC`, the result in the data set with Mesenchymal stem cell [5] was Active.
`COc1ccc(Cl)cc1C(=O)NCCc1ccc(S(=O)(=O)NC(=O)NC2CCCCC2)cc1`: the Activity entry in the data set on Mesenchymal stem cell [2] is “Dose-dependent effect”.
Consider `CSC(=O)c1c(O[C@@H]2O[C@@H](C)[C@H](O)[C@@H](O)[C@H]2O)c(C)c(O[C@@H]2O[C@@H](C)[C@H](O)[C@@H](O)[C@H]2O)c(C)c1C(C)C`, for which the Activity in data set [1] was 75%; in the data set on Mesenchymal stem cell [2], “Dose-dependent effect”; in data set [4] it was “Non-toxic”. In addition, in data set [3], the “%max” value turned out to be 38%.
For `CSC(=O)c1c(O[C@@H]2O[C@@H](C)[C@H](O)[C@@H](O)[C@H]2O)c(C)c(O)c(C)c1C(C)C`, in that order: 107%, “Dose-dependent effect”, “Non-toxic” and 44%.
With `CSC(=O)c1c(O)c(C)c(O)c(C)c1C(C)C`, the outcome in the data set on Mesenchymal stem cell [6] was inactive. Moreover, the Activity entry in data set [4] is “Non-toxic”.
